Measurements from patent US12030881B2, “Ion channel modulators” (PRAXIS PRECISION MEDICINES, INC., priority 2019, dated 2024).

Molecular target: T1, INaL v1.6 (Nav late current, recombinant sodium channels) (Homo sapiens, UniProt Q9UQD0)
T1 construct: expressed in transfected cells; host or cells: HEK-293
Assay: PatchXpress electrophysiology, ATX-II evoked Nav late current (INaL) in HEK-293 cells expressing recombinant sodium channels
Format: cell-based
Conditions: HEK293, compound at 1 μM, late current evoked by ATX-II 300 nM, steady state block
Description: Functional characterization of exemplary compounds to modulate voltage gated sodium currents was accomplished using the PatchXpress™ high throughput electrophysiology platforms (Molecular Devices, Sunnyvale, CA). HEK-293 cells expressing recombinant sodium channels were grown in DMEM/high-glucose Dulbecco's modified, 10% FBS, 2 mM sodium pyruvate, and G418. Nav channel expressing cells were grown to 50%-80% confluency and harvested by trypsinization. Trypsinized cells were washed and resuspended in extracellular buffer at a concentration of 1×10^6 cells/ml. The onboard liquid handling facility of the PatchXpress was used for dispensing cells and application of test compounds. Nav late currents were evoked by the application of ATX-II, 300 nM. Currents were evoked by depolarizing pulses to 0 mV for 200 ms from a non-inactivating holding potential (e.g., −120 mV to −150 mV) at a frequency of 0.1 Hz. Late current amplitude and stability were determined by analyzing the mean current amplitude over the 175-195 msec region of the 200 msec test pulse. Following steady state block with exemplary compounds (e.g., as described herein) at 1 μM, a Na free solution containing an impermeant cation (e.g., Choline or NDMG) was added for determination of the 0 current level. Late current amplitudes for each test condition were determined from the mean of the 175-195 msec region of the 200 msec test pulse. Percent inhibition of steady state currents was calculated as (compound-baseline)/(control-baseline)*100, where control represents INaL recorded in the absence of compound.

T1 sequence (Q9UQD0 whole entry): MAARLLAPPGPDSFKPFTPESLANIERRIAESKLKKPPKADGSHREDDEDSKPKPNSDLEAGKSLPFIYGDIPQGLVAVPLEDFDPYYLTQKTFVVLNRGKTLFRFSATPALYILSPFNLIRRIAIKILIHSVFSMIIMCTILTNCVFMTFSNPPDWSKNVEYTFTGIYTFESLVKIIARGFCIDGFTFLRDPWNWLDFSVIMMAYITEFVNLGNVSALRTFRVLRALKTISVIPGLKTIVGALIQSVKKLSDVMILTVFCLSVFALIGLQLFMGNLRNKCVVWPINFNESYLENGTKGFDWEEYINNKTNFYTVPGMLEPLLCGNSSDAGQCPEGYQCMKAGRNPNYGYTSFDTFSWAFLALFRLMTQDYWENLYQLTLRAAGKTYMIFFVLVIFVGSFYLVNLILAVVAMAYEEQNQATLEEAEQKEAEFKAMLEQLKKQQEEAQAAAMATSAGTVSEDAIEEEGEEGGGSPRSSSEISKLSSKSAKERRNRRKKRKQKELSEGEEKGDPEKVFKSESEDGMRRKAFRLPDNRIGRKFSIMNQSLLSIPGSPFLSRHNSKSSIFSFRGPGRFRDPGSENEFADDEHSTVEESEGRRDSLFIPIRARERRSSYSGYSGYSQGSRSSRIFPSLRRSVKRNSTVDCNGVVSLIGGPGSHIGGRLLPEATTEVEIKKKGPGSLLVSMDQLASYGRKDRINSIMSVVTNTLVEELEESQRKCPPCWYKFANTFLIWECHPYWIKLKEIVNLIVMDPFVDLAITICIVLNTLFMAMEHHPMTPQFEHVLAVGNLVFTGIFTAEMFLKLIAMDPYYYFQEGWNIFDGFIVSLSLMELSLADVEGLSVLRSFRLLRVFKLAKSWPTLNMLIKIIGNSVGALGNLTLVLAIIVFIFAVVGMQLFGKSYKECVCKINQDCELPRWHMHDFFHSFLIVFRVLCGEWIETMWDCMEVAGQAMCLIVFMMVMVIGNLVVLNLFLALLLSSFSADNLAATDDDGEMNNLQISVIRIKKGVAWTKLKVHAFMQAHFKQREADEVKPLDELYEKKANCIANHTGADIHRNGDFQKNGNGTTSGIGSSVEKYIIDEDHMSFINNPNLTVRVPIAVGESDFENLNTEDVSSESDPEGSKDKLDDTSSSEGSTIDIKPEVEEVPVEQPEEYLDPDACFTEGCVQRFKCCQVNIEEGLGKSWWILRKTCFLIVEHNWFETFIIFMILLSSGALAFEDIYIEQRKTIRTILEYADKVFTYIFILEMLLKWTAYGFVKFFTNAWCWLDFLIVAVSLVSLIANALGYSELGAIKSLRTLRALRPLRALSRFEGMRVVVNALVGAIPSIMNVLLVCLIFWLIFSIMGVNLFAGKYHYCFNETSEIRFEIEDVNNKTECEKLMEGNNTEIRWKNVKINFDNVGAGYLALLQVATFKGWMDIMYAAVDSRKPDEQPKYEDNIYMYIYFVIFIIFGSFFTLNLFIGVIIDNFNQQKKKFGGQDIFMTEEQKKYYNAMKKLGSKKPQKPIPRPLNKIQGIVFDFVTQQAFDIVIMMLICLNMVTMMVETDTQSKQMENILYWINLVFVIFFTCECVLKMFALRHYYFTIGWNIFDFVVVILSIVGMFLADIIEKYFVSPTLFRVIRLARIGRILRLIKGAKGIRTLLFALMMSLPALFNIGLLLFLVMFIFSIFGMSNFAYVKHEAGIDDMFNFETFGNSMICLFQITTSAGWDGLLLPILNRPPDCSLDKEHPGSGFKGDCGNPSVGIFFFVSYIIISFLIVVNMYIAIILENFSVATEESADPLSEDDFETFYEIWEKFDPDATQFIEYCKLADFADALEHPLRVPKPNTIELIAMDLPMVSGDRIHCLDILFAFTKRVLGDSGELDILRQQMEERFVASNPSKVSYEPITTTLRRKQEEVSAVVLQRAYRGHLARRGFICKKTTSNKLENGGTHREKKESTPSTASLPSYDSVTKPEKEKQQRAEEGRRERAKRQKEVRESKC

Question: How did the inhibition at 1 µM turn out when CC(C)(Oc1ncc(-c2ccc3nnc(C(F)(F)F)n3c2)cc1F)C(F)(F)F [Example 6, 6-[5-fluoro-6-(2,2,2-trifluoro-1,1-dimethyl-ethoxy)-3-pyridyl]-3-(trifluoromethyl)-[1,2,4]triazolo[4,3-a]pyridine] was run?
Answer: > 75%

Question: Fc1cc(-c2ccc3nnc(C(F)(F)F)n3c2)cnc1OC1(C(F)(F)F)COC1 [Example 8, 6-[5-fluoro-6-[3-(trifluoromethyl)oxetan-3-yl]oxy-3-pyridyl]-3-(trifluoromethyl)-[1,2,4]triazolo[4,3-a]pyridine] was tested. Which inhibition at 1 µM did it give?
Answer: 50 to 75%

Question: With C[C@@H](Oc1ncc(-c2ccc3nnc(C(F)(F)F)n3c2)cc1F)C(F)(F)F [Example 2, 6-[5-fluoro-6-[(1R)-2,2,2-trifluoro-1-methyl-ethoxy]-3-pyridyl]-3-(trifluoromethyl)-[1,2,4]triazolo[4,3-a]pyridine] as the molecule, how does the inhibition at 1 µM read?
Answer: > 75%

Question: How did the inhibition at 1 µM turn out when C[C@H](Oc1ncc(-c2ccc3nnc(C(F)(F)F)n3c2)cc1F)C(F)(F)F [Example 1, 6-[5-fluoro-6-[(1S)-2,2,2-trifluoro-1-methyl-ethoxy]-3-pyridyl]-3-(trifluoromethyl)-[1,2,4]triazolo[4,3-a]pyridine] was run?
Answer: > 75%

Question: For C[C@@H](Oc1ncc(-c2ccc3nnc(C(F)F)n3c2)cc1F)C(F)(F)F [Example 3, 3-(difluoromethyl)-6-[5-fluoro-6-[(1R)-2,2,2-trifluoro-1-methyl-ethoxy]-3-pyridyl]-[1,2,4]triazolo[4,3-a]pyridine], which inhibition at 1 µM is on record?
Answer: > 75%

Question: How did the inhibition at 1 µM turn out when Fc1cc(-c2ccc3nnc(C(F)(F)F)n3c2)cnc1OC1(C(F)(F)F)CCC1 [Example 7, 6-[5-fluoro-6-[1-(trifluoromethyl)cyclobutoxy]-3-pyridyl]-3-(trifluoromethyl)-[1,2,4]triazolo[4,3-a]pyridine] was run?
Answer: > 75%

Question: How did the inhibition at 1 µM turn out when Fc1cc(-c2ccc3nnc(C(F)(F)F)n3c2)cnc1OCC(F)(F)F [Example 10, 6-[5-fluoro-6-(2,2,2-trifluoroethoxy)-3-pyridyl]-3-(trifluoromethyl)-[1,2,4]triazolo[4,3-a]pyridine] was run?
Answer: > 75%

Question: With Fc1cc(-c2ccc3nnc(C(F)F)n3c2)cnc1OCC(F)(F)F [Example 9, 3-(difluoromethyl)-6-[5-fluoro-6-(2,2,2-trifluoroethoxy)-3-pyridyl]-[1,2,4]triazolo[4,3-a]pyridine] as the molecule, how does the inhibition at 1 µM read?
Answer: 50 to 75%

Question: For C[C@H](Oc1ncc(-c2ccc3nnc(C(F)F)n3c2)cc1F)C(F)(F)F [Example 4, 3-(difluoromethyl)-6-[5-fluoro-6-[(1S)-2,2,2-trifluoro-1-methyl-ethoxy]-3-pyridyl]-[1,2,4]triazolo[4,3-a]pyridine], which inhibition at 1 µM is on record?
Answer: > 75%

Question: For CC(C)(Oc1ncc(-c2ccc3nnc(C(F)F)n3c2)cc1F)C(F)(F)F [Example 5, 3-(difluoromethyl)-6-[5-fluoro-6-(2,2,2-trifluoro-1,1-dimethyl-ethoxy)-3-pyridyl]-[1,2,4]triazolo[4,3-a]pyridine], which inhibition at 1 µM is on record?
Answer: > 75%
